Reference: patent US20240101576A1, “HETEROCYCLIC INHIBITORS OF EGFR AND/OR HER2, FOR USE IN THE TREATMENT OF CANCER” (Scorpion Therapeutics, Inc., priority 2020, published 2024)

Key:
Type in all cases: cell-based
EGFR L858R (Ba/F3 cells) = molecular target: T1, EGFR L858R (Ba/F3 cells) (Homo sapiens, UniProt P00533, L858R); test: Inhibitor activity on EGFR-dependent cell growth (CellTiter-Glo, 72 h), Ba/F3 EGFR L858R; settings: read-out: BaF3 L858R IC50
T1 construct: expressed in transfected cells; host or cells: Ba/F3 (murine pro-B cells), retroviral transduction, puromycin selection, IL3-independent pool
T1 sequence (P00533 25-1210 L858R): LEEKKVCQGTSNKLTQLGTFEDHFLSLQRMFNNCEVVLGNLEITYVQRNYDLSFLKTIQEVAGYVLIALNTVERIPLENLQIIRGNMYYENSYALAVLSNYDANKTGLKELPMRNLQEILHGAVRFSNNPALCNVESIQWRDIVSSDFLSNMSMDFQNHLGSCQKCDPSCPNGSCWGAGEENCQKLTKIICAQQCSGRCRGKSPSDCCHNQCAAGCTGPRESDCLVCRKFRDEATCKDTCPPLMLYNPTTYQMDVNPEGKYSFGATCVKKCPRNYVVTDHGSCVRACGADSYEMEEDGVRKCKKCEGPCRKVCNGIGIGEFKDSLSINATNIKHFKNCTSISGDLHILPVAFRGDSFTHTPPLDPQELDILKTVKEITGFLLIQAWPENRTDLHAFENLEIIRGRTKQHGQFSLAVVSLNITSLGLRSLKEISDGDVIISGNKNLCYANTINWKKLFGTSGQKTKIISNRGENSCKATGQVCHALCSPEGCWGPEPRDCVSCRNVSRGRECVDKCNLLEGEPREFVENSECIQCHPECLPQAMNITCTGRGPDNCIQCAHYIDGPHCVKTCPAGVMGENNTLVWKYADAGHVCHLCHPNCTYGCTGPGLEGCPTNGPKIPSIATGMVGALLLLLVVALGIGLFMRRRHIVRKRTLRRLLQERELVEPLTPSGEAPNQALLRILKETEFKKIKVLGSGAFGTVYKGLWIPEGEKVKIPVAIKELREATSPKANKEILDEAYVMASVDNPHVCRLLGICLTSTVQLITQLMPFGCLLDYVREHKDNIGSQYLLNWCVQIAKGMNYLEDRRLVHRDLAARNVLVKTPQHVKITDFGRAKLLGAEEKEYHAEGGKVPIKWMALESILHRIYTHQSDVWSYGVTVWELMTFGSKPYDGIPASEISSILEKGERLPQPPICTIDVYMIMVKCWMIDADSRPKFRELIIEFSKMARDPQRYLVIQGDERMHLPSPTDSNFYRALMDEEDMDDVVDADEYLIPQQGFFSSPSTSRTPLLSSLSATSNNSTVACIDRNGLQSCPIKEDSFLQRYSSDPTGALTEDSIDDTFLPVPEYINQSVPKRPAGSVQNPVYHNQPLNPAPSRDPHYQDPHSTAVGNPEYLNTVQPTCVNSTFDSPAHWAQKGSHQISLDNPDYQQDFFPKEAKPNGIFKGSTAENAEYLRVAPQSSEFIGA
Source text: (§1) Example A. Inhibitor Activity on EGFR-Dependent Cell Growth
(§2) Cell lines are generated by transducing Ba/F3 cells with retroviruses containing vectors with EGFR WT, EGFR L858R, EGFR exon 19del, EGFR L858R/C797S, EGFR exon 20 NPG Ins D770_N771, EGFR exon 20 ASV Ins V769_D770, EGFR exon 20 SVD Ins D770_N771, or EGFR exon 20 FQEA Ins A763_V764 genes and a puromycin selection marker. Transduced cells are selected with puromycin for 7 days and are then be transferred into culture media without Interleukin 3 (IL3). EGFR WT cells are maintained with supplemental EGF. Surviving cells are confirmed to express EGFR by Western blot and maintained as a pool. The IC50 date were included in Table 6 and Table 7.
(§3) 1.1 Cells are harvested from flask into cell culture medium and the cell number counted.
(§4) 1.2 Cells are diluted with culture medium to the desired density and 40 μL of cell suspension is added into each well of 384-well cell culture plate and the seeding density is 800 (FQEA, exon 19del), 600 (WT, NPG, L858R/C797S), or 400 (ASV, SVD, L858R) cells/well.
(§5) 2 Compound Preparation and Treatment
(§6) 2.1 Test compounds are dissolved to 10 mM in a DMSO stock solution. 45 μL of stock solution is transferred to a 384 polypropylene plate (pp-plate). Perform 3-fold, 10-point dilution via transferring 15 μL compound into 30 μL DMSO using a TECAN (EVO200) liquid handler.
(§7) 2.2 Spin plates at room temperature at 1,000 RPM for 1 minute.
(§8) 2.3 Transfer 120 nL of diluted compound from compound source plate into the cell plate.
(§9) 2.4 After compound treatment for 72 hours, perform CTG detection for compound treatment plates as described in “Detection” section.
(§10) 3.1 Plates are removed from incubators and equilibrated at room temperature for 15 minutes.
(§11) 3.2 Thaw the CellTiter Glo reagents and allow to equilibrate to room temperature before the experiment.
(§12) 3.3 Add 40 μL of CellTiter-Glo reagent into each well (at 1:1 to culture medium). Then place the plates at room temperature for 30 min followed by reading on EnVision.
(§13) 4.1 Inhibition activity is calculated following the formula below:
(§14) % Inhibition=100×(LumHC−LumSample)/(LumHC−LumLC) • where HC is obtained from cells treated with 0.1% DMSO only; and LC is obtained from culture medium only.
(§15) 4.2 2. Calculate the IC50 by fitting the Curve using Xlfit (v5.3.1.3), equation 201.
(§16) Y=Bottom+(Top−Bottom)/(1+10^((Log IC50−X)*HillSlope))

[1] = molecular target: T2, EGFR exon 20 ASV Ins V769_D770 (Ba/F3 cells) (Homo sapiens, UniProt P00533, INS769ASV); test: Inhibitor activity on EGFR-dependent cell growth (CellTiter-Glo, 72 h), Ba/F3 EGFR exon 20 ASV Ins; settings: read-out: BaF3 ASV IC50
T2 construct: expressed in transfected cells; host or cells: Ba/F3 (murine pro-B cells), retroviral transduction, puromycin selection, IL3-independent pool
T2 sequence (P00533 with tags, fused parts or gaps INS769ASV): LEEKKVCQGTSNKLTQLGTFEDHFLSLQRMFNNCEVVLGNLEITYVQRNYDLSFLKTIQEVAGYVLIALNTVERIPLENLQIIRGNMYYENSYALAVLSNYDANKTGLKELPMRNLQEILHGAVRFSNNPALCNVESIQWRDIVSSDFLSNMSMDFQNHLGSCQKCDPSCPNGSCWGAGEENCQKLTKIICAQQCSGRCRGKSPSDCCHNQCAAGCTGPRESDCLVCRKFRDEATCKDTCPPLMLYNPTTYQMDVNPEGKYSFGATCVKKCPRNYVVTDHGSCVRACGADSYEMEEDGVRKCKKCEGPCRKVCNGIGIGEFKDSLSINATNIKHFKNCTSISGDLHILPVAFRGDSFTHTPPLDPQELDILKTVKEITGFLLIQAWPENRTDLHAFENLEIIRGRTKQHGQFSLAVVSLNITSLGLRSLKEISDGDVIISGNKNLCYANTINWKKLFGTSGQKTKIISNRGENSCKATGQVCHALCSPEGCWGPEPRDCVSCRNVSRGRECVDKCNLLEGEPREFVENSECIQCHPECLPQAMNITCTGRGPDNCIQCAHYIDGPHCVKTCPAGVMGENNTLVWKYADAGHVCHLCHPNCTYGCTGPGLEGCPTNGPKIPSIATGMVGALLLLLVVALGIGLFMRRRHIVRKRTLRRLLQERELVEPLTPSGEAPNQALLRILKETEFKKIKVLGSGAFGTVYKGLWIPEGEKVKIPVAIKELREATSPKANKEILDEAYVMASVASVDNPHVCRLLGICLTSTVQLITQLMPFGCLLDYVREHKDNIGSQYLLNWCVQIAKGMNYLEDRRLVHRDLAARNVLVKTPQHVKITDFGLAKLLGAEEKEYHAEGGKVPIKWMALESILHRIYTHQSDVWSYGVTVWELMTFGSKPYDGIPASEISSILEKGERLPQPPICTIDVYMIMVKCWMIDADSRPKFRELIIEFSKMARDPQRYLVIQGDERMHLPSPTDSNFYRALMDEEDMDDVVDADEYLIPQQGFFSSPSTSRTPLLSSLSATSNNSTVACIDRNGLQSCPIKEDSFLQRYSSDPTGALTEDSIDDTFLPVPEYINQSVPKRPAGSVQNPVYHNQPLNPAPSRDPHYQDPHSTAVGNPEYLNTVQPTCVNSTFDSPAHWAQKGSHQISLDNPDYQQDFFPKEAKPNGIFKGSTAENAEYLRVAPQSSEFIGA
In short: (§17)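 IC50s derive from a sigmoidal dose–response fit of CellTiter-Glo signal. The signal was normalised between […]-treated cells and cell-free medium. Ba/F3 mutant-EGFR cells, seeded at 400–800/well depending on the line, had 72 h of exposure to a 10-point, 3-fold compound series.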

[2] = molecular target: T3, EGFR exon 20 SVD Ins D770_N771 (Ba/F3 cells) (Homo sapiens, UniProt P00533, INS770SVD); test: Inhibitor activity on EGFR-dependent cell growth (CellTiter-Glo, 72 h), Ba/F3 EGFR exon 20 SVD Ins; settings: read-out: BaF3 SVD IC50
T3 construct: expressed in transfected cells; host or cells: Ba/F3 (murine pro-B cells), retroviral transduction, puromycin selection, IL3-independent pool
In short: as §17

[3] = molecular target: EGFR exon 19del (Ba/F3 cells) (Homo sapiens, UniProt P00533); test: Inhibitor activity on EGFR-dependent cell growth (CellTiter-Glo, 72 h), Ba/F3 EGFR exon 19del; settings: Ba/F3 EGFR exon 19del cell growth, read-out: BaF3 Del19 IC50
Chain of EGFR exon 19del (Ba/F3 cells) (P00533 with tags, fused parts or gaps DEL746-750): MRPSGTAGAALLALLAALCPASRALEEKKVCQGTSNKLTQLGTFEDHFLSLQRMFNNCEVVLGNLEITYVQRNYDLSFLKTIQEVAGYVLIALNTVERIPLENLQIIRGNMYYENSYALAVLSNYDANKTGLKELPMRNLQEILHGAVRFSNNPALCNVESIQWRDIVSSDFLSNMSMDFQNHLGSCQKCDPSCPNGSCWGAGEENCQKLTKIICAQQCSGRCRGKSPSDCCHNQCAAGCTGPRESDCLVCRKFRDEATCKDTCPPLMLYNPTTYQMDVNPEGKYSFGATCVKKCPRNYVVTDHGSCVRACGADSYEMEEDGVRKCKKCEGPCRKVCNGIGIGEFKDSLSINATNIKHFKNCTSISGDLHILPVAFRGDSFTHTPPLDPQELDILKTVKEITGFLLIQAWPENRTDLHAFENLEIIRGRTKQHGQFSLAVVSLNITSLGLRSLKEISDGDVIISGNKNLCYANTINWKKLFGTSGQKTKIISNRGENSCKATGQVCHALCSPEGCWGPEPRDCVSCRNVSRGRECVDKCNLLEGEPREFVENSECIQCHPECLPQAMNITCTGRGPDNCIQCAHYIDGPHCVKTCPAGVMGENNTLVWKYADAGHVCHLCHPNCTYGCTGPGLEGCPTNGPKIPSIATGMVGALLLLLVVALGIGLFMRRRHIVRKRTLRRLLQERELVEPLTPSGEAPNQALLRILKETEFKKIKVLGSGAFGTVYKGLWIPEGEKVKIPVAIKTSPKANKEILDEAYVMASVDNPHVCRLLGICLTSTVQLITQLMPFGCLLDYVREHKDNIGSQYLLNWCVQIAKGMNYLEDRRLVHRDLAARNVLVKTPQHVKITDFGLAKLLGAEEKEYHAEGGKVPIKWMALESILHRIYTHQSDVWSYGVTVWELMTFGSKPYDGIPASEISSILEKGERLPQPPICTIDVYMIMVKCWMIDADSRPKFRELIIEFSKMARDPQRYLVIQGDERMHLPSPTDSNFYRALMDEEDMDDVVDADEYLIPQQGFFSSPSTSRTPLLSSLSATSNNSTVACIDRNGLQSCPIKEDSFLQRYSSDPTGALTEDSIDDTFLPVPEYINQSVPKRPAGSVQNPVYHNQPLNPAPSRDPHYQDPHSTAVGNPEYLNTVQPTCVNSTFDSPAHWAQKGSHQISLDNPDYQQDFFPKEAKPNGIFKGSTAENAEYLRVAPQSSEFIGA
Source text: as §1, §2, §3, §4, §5, §6, §7, §8, §9, §10, §11, §12, §13, §14, §15, §16

[4] = molecular target: T4, EGFR exon 20 NPG Ins D770_N771 (Ba/F3 cells) (Homo sapiens, UniProt P00533, INS770NPG); test: Inhibitor activity on EGFR-dependent cell growth (CellTiter-Glo, 72 h), Ba/F3 EGFR exon 20 NPG Ins; settings: read-out: BaF3 NPG IC50
T4 construct: expressed in transfected cells; host or cells: Ba/F3 (murine pro-B cells), retroviral transduction, puromycin selection, IL3-independent pool
In short: as §17

[5] = molecular target: T5, EGFR exon 20 FQEA Ins A763_V764 (Ba/F3 cells) (Homo sapiens, UniProt P00533, INS763FQEA); test: Inhibitor activity on EGFR-dependent cell growth (CellTiter-Glo, 72 h), Ba/F3 EGFR exon 20 FQEA Ins; settings: read-out: BaF3 FQEA IC50
T5 construct: expressed in transfected cells; host or cells: Ba/F3 (murine pro-B cells), retroviral transduction, puromycin selection, IL3-independent pool
In short: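 Ba/F3 cells engineered with each EGFR variant were plated (400, 600 or 800 per well for L858R, L858R/C797S, and exon 19del/FQEA). They were exposed for 72 hours to compound serially diluted from a 10 mM DMSO stock. Remaining viable cells were quantified by CellTiter-Glo, and IC50 was curve-fitted.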

EGFR (CUTO14 cells) = EGFR (CUTO14 cells) (Homo sapiens, UniProt P00533); test: Inhibitor activity on EGFR phosphorylation (pEGFR AlphaLISA, 2 h), CUTO14 cells
Source text: (§18) Example B. Inhibitor Activity on EGFR phosphorylation (pEGFR)
(§19) EGFR mutant Ba/F3 cells were generated by transduction with retrovirus containing vectors expressing EGFR L858R, EGFR exon 19del, EGFR L858R/C797S, EGFR exon 20 NPG Ins D770_N771, EGFR exon 20 ASV Ins V769_D770, or EGFR exon 20 SVD Ins D770_N771 genes along with a puromycin selection marker. Transduced cells are selected with puromycin for 7 days and are then be transferred into culture media without Interleukin 3 (IL3). Surviving cells are confirmed to express EGFR by Western blot and maintained as a pool. CUTO14 cells were obtained from Dr. Robert C. Doebele at the University of Colorado. The IC50 date are included in Table 6 and Table 7.
as §3
(§20) 1.2 Cells are diluted with culture medium to the desired density and 40 μL of cell suspension is added into each well of 384-well cell culture plate and the seeding density is 50K cells/well (Ba/F3) or 12.5K cells/well (CUTO14).
as §5, §6, §7
(§21) 2.3 Transfer 5 nL of diluted compound from compound source plate into the cell plate.
(§22) 2.4 After compound treatment for 2 hours, perform pEGFR detection by AlphaLISA for compound treatment plates as described in “Detection” section.
(§23) 3 Detection by pEGFR AlphaLISA (Perkin-Elmer)
(§24) 3.1 Plates are removed from incubators and equilibrated at room temperature for 10 minutes, and media was removed
(§25) 3.2 10 μL of lysis buffer is added and plates shaken at 600 rpm for 1 hr.
(§26) 3.3 Prepare acceptor mix just before use and dispense 5 μL of acceptor mix to all the wells. Shake 350 rpm for Ihr in the dark
(§27) 3.4 Prepare donor mix under low light conditions prior to use. Dispense 5 μL of donor mix to all the wells. Mix well on the shaker, seal and wrap in aluminum foil and incubate 1.5 hrs at room temperature in the dark
(§28) 3.5 Transfer 18.5 μL mixture to OptiPlate 384, and read using an Envision. The IC50 date were included in Table 6 and Table 7.

EGFR WT (Ba/F3 cells) = molecular target: T6, EGFR WT (Ba/F3 cells) (Homo sapiens, UniProt P00533); test: Inhibitor activity on EGFR-dependent cell growth (CellTiter-Glo, 72 h), Ba/F3 EGFR WT; settings: read-out: BaF3 WT IC50
T6 construct: expressed in transfected cells; host or cells: Ba/F3 (murine pro-B cells), retroviral transduction, puromycin selection, maintained with EGF
T6 sequence (P00533 25-1210): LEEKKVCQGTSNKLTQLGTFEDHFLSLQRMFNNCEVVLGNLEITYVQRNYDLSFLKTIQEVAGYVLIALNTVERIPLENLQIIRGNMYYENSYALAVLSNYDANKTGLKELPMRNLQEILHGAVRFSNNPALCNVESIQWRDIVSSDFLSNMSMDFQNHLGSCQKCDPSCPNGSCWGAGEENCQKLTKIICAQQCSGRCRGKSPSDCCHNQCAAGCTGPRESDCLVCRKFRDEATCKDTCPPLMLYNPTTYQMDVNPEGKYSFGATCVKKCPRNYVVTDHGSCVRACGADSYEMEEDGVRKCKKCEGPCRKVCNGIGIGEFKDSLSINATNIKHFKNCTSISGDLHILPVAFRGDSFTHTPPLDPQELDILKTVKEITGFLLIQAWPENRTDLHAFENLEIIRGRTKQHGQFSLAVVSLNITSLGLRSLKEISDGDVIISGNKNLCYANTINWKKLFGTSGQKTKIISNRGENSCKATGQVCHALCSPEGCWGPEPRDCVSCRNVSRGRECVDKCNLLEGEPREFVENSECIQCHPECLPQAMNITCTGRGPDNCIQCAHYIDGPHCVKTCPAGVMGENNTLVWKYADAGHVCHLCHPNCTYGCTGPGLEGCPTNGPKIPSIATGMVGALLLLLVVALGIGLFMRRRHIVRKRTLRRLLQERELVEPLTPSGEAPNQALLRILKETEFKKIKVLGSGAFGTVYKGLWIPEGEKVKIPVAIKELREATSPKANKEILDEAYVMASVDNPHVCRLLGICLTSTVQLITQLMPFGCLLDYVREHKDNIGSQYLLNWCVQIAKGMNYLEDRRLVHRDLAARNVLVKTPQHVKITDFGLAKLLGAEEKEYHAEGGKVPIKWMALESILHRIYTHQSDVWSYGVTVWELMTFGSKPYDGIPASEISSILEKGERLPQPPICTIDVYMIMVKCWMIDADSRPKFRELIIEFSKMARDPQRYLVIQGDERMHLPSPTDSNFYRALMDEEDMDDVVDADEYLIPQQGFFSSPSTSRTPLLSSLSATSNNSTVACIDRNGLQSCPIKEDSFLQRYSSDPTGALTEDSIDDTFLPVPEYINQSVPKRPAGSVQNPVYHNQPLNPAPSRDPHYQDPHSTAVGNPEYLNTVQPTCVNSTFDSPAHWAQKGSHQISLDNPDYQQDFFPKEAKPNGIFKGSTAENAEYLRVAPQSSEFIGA
In short: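 This growth assay used Ba/F3 cells that depend on wild-type EGFR and are kept in EGF without IL3. Compounds were made up as 10 mM DMSO stocks and diluted 3-fold over 10 points. 120 nL went onto 600 cells/well. After 72 hours, 40 μL CellTiter-Glo was added and luminescence read on EnVision after 30 min.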

[6] = molecular target: T7, EGFR L858R/C797S (Ba/F3 cells) (Homo sapiens, UniProt P00533, C797S/L858R); test: Inhibitor activity on EGFR-dependent cell growth (CellTiter-Glo, 72 h), Ba/F3 EGFR L858R/C797S; settings: read-out: BaF3 L858R/C797S IC50
T7 construct: expressed in transfected cells; host or cells: Ba/F3 (murine pro-B cells), retroviral transduction, puromycin selection, IL3-independent pool
Source text: as §1, §2, §3, §4, §5, §6, §7, §8, §9, §10, §11, §12, §13, §14, §15, §16

[7] = molecular target: T7, EGFR L858R/C797S (Ba/F3 cells); test: Inhibitor activity on EGFR phosphorylation (pEGFR AlphaLISA, 2 h), Ba/F3 EGFR L858R/C797S
Source text: as §18, §19, §3, §20, §5, §6, §7, §21, §22, §23, §24, §25, §26, §27, §28

Compound | IC50 (EGFR L858R (Ba/F3 cells)) | IC50 [1] | IC50 [2] | IC50 [3] | IC50 [4] | IC50 [5] | IC50 (EGFR (CUTO14 cells)) | IC50 (EGFR WT (Ba/F3 cells)) | IC50 [6] | IC50 [7]
COc1c(Cl)cccc1Nc1c(-c2ccnc(N)n2)[nH]c2c1C(=O)NC[C@@H]2C[C@H]1COCCO1 [Compound 531, (7S)-2-(2-aminopyrimidin-4-yl)-3-[(3-chloro-2-methoxyphenyl)amino]-7-[(2S)-1,4-dioxan-2-ylmethyl]-1H,5H,6H,7H-pyrrolo[3,2-c]pyridin-4-one] | < 0.1 µM | < 0.1 µM | < 0.1 µM | < 0.1 µM | < 0.1 µM | < 0.1 µM | < 0.1 µM | 0.1 to 1 µM | – | –
C=CC(=O)N1CCC2(CC1)CNC(=O)c1c2[nH]c(-c2ccncn2)c1Nc1cccc(F)c1OC [Compound 611, 3′-[(3-fluoro-2-methoxyphenyl)amino]-1-(prop-2-enoyl)-2′-(pyrimidin-4-yl)-5′,6′-dihydro-1′H-spiro[piperidine-4,7′-pyrrolo[3,2-c]pyridin]-4′-one] | < 0.1 µM | < 0.1 µM | < 0.1 µM | < 0.1 µM | < 0.1 µM | – | < 0.1 µM | < 0.1 µM | – | –
COc1c(Cl)cccc1Nc1c(-c2ccncc2F)[nH]c2c1C(=O)NC[C@H]2C[C@@H]1COCCO1 (single isomer, unassigned) [Compound 483] | < 0.1 µM | – | – | < 0.1 µM | < 0.1 µM | 0.1 to 1 µM | < 0.1 µM | > 1 µM | – | –
COc1c(Cl)cccc1Nc1c(-c2ccnc(N)n2)[nH]c2c1C(=O)NC[C@H]2C[C@H]1COCCO1 [Compound 571, (7R)-2-(2-aminopyrimidin-4-yl)-3-[(3-chloro-2-methoxyphenyl)amino]-7-[(2S)-1,4-dioxan-2-ylmethyl]-1H,5H,6H,7H-pyrrolo[3,2-c]pyridin-4-one] | < 0.1 µM | < 0.1 µM | < 0.1 µM | < 0.1 µM | < 0.1 µM | < 0.1 µM | < 0.1 µM | 0.1 to 1 µM | – | –
C=CC(=O)N1CCC2(CC1)CNC(=O)c1c2[nH]c(-c2ccncc2F)c1Nc1cc(F)cc(Cl)c1OC [Compound 559, 3′-[(3-chloro-5-fluoro-2-methoxyphenyl)amino]-2′-(3-fluoropyridin-4-yl)-1-(prop-2-enoyl)-5′,6′-dihydro-1′H-spiro[piperidine-4,7′-pyrrolo[3,2-c]pyridin]-4′-one] | < 0.1 µM | < 0.1 µM | < 0.1 µM | < 0.1 µM | < 0.1 µM | < 0.1 µM | < 0.1 µM | < 0.1 µM | – | –

More lines, now with the values ahead:

IC50 (EGFR L858R (Ba/F3 cells)) | IC50 [1] | IC50 [2] | IC50 [3] | IC50 [4] | IC50 [5] | IC50 (EGFR (CUTO14 cells)) | IC50 (EGFR WT (Ba/F3 cells)) | IC50 [6] | IC50 [7] | Compound
< 0.1 µM | < 0.1 µM | < 0.1 µM | < 0.1 µM | < 0.1 µM | – | < 0.1 µM | > 1 µM | – | – | COc1c(Cl)cccc1Nc1c(-c2ccncn2)[nH]c2c(C[C@@H]3COCCO3)c[nH]c(=O)c12 [compound 656]
< 0.1 µM | < 0.1 µM | < 0.1 µM | < 0.1 µM | < 0.1 µM | – | < 0.1 µM | 0.1 to 1 µM | < 0.1 µM | < 0.1 µM | COc1c(Cl)cccc1Nc1c(-c2ccncc2F)[nH]c2c(C[C@@H]3COCCO3)c[nH]c(=O)c12 [compound 657]
< 0.1 µM | < 0.1 µM | < 0.1 µM | < 0.1 µM | < 0.1 µM | – | < 0.1 µM | 0.1 to 1 µM | – | – | COc1c(Cl)cccc1Nc1c(-c2ccnc(C)n2)[nH]c2c(C[C@@H]3COCCO3)c[nH]c(=O)c12 [compound 655, 3-[(3-chloro-2-methoxyphenyl)amino]-7-[(2R)-1,4-dioxan-2-ylmethyl]-2-(2-methylpyrimidin-4-yl)-1H,5H-pyrrolo[3,2-c]pyridin-4-one]
– | < 0.1 µM | < 0.1 µM | – | < 0.1 µM | – | < 0.1 µM | 0.1 to 1 µM | < 0.1 µM | < 0.1 µM | COc1c(Cl)cc(F)cc1Nc1c(-c2ccnc(C)n2)[nH]c2c1C(=O)NC[C@@H]2C[C@@H]1COCCO1 [compound 651]
